{
  "source": "patent US20210369680A1",
  "about": "“METHODS OF TREATING DISEASES AND DISORDERS RESULTING FROM BETA CORONAVIRUS INFECTION” (T3D Therapeutics, Inc., priority 2020, published 2021)",
  "test": "Fasting plasma glucose in 2-week clinical study",
  "type": "in vivo, human",
  "set-up": "FPG on Day 1 / FPG on Day 14 / FPG on Day 21 / FPG Change from D 1 to D 14 / FPG Change from D 1 to D 21: unit not given here",
  "text": "Fasting Plasma Glucose Levels for Compound 11 from a Clinical Study\nFPG measured in millimoles/Liter (MMOL/L), averaged over all subjects, was lowered from day 1 to day 14. For each individual dose group day 14 FPG levels were lower than day 1 levels. […] For the two highest doses, the FPG remained lower on follow-up testing on day 21, one week after end of treatment.",
  "data": [
    {"smiles": "CCc1oc(-c2ccc(OC)cc2)nc1CCOc1ccc2c(c1)CC[C@H]2CC(=O)[O-].[Na+]", "note": "[Example 11, Sodium (S)-2-(5-(2-(5-ethyl-2-(4-methoxyphenyl)oxazol-4-yl)ethoxy)-2,3-dihydro-1H-inden-1-yl)acetate]", "values": [
      {"measurement": "FPG Change from D 1 to D 14", "setting": "3 mg", "value": "−2.2"},
      {"measurement": "FPG Change from D 1 to D 21", "setting": "3 mg", "value": 2.5},
      {"measurement": "FPG on Day 1", "setting": "3 mg", "value": 94.6},
      {"measurement": "FPG on Day 14", "setting": "3 mg", "value": 92.4},
      {"measurement": "FPG on Day 21", "setting": "3 mg", "value": 97.1},
      {"measurement": "FPG Change from D 1 to D 14", "setting": "10 mg", "value": "−3.4"},
      {"measurement": "FPG Change from D 1 to D 21", "setting": "10 mg", "value": 0.5},
      {"measurement": "FPG on Day 1", "setting": "10 mg", "value": 101.4},
      {"measurement": "FPG on Day 14", "setting": "10 mg", "value": 98},
      {"measurement": "FPG on Day 21", "setting": "10 mg", "value": 101.9},
      {"measurement": "FPG Change from D 1 to D 14", "setting": "30 mg", "value": "−4.6"},
      {"measurement": "FPG Change from D 1 to D 21", "setting": "30 mg", "value": "−0.1"},
      {"measurement": "FPG on Day 1", "setting": "30 mg", "value": 99.2},
      {"measurement": "FPG on Day 14", "setting": "30 mg", "value": 94.6},
      {"measurement": "FPG on Day 21", "setting": "30 mg", "value": 99.1},
      {"measurement": "FPG Change from D 1 to D 14", "setting": "90 mg", "value": "−7.0"},
      {"measurement": "FPG Change from D 1 to D 21", "setting": "90 mg", "value": "−4.7"},
      {"measurement": "FPG on Day 1", "setting": "90 mg", "value": 101.1},
      {"measurement": "FPG on Day 14", "setting": "90 mg", "value": 94.1},
      {"measurement": "FPG on Day 21", "setting": "90 mg", "value": 96.4},
      {"measurement": "Fasting Plasma Glucose (FPG) levels", "setting": "2-week clinical study, 34 subjects", "value": "lowered as a function of dose"},
      {"measurement": "FPG Change from D 1 to D 14", "setting": "All subjects", "value": "−4.3"},
      {"measurement": "FPG Change from D 1 to D 21", "setting": "All subjects", "value": "−1"},
      {"measurement": "FPG on Day 1", "setting": "All subjects", "value": 99.1},
      {"measurement": "FPG on Day 14", "setting": "All subjects", "value": 94.8},
      {"measurement": "FPG on Day 21", "setting": "All subjects", "value": 98.1}
    ]}
  ]
}
